Test results taken from patent US20100298141A1, “SUBSTITUTED PYRIDINE N-OXIDE HERBICIDES” (E. I. DU PONT DE NEMOURS AND COMPANY, priority 2007, published 2010).

Assays:
barnyardgrass [1] = test: Test A pre-/postemergence greenhouse test; assay type: in vivo, Echinochloa crus-galli; conditions: for Barnyardgrass plant response rating: 0 to 100 scale; for Plant response rating, Barnyardgrass: 0 to 100 scale where 0 is no effect and 100 is complete control
Summary of the method: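 Visual injury ratings, made relative to untreated controls roughly ten days after treatment, cover both preemergence and postemergence application. Compounds in a surfactant-containing non-phytotoxic solvent were sprayed onto the soil surface after sowing and, simultaneously, onto young plants at the one- to two-leaf stage.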

cocklebur = test: Test C pre-/postemergence test; assay type: in vivo, Xanthium strumarium; conditions: for Plant response rating, Cocklebur: 31 g ai/ha, scale 0 to 100 (0 no effect, 100 complete control); for Plant response rating (0 to 100), Cocklebur: 250 g ai/ha
Summary of the method: (§1)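 Test chemicals were formulated with surfactant in a non-phytotoxic solvent and sprayed both on freshly planted seeds (preemergence) and on 1- to 4-leaf plants of 2–18 cm (postemergence). Flooded-paddy pots received compound directly into 3 cm of standing water, maintained for the test.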

kochia = test: Test C pre-/postemergence test; assay type: in vivo, Kochia scoparia; conditions: Preemergence; for Kochia plant response rating: 62 g ai/ha, scale 0 to 100; for Plant response rating, Kochia: 31 g ai/ha, scale 0 to 100 (0 no effect, 100 complete control)
Summary of the method: as §1

velvetleaf = test: Test C pre-/postemergence test; assay type: in vivo, Abutilon theophrasti; conditions: Preemergence; for Velvetleaf plant response rating: 62 g ai/ha, scale 0 to 100; for Plant response rating, Velvetleaf: 31 g ai/ha, scale 0 to 100 (0 no effect, 100 complete control)
Summary of the method: as §1

green foxtail = test: Test F preemergence test; assay type: in vivo, Setaria viridis; conditions: scale 0 to 100
Summary of the method: (§2)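 Greenhouse screen: test chemical in surfactant-containing non-phytotoxic solvent applied preemergence to sown seeds or postemergence to sugarcane plants; after 14 to 21 days each species scored visually versus controls.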

mustard = test: Test F preemergence test; assay type: in vivo, Brassica nigra; conditions: scale 0 to 100
Summary of the method: as §2

dallisgrass = test: Test F preemergence test; assay type: in vivo, Paspalum dilatatum; conditions: scale 0 to 100
Summary of the method: as §2

barnyardgrass [2] = test: Test F preemergence test; assay type: in vivo, Echinochloa crus-galli
Summary of the method: as §2

broadleaf signalgrass = test: Test F preemergence test; assay type: in vivo, Brachiaria platyphylla; conditions: scale 0 to 100
Summary of the method: as §2

Virginia dayflower = test: Test F preemergence test; assay type: in vivo, Commelina virginica; conditions: scale 0 to 100
Summary of the method: as §2

annual bluegrass = test: Test F preemergence test; assay type: in vivo, Poa annua; conditions: scale 0 to 100
Summary of the method: as §2

itchgrass = test: Test F preemergence test; assay type: in vivo, Rottboellia cochinchinensis; conditions: scale 0 to 100
Summary of the method: as §2

field bindweed = test: Test F preemergence test; assay type: in vivo, Convolvulus arvensis; conditions: scale 0 to 100
Summary of the method: as §2

common mallow = test: Test F preemergence test; assay type: in vivo, Malva sylvestris; conditions: scale 0 to 100
Summary of the method: as §2

[3] = Postemergence, 125 g ai/ha, 0 is no effect, 100 is complete control
[4] = Postemergence, 500 g ai/ha, 0 is no effect, 100 is complete control
[5] = Preemergence, 125 g ai/ha, 0 no effect, 100 complete control
[6] = 62 g ai/ha, Preemergence, scale 0 to 100
[7] = preemergence, 125 g ai/ha, scale 0 (no effect) to 100 (complete control)
[8] = 125 g ai/ha, preemergence, scale 0 to 100
[9] = Preemergence, 31 g ai/ha, scale 0 to 100

Cn1nc(C(F)(F)F)c(C[S+]([O-])c2cccc[n+]2[O-])c1OCC(F)(F)F (racemic) [Compound 28]
Barnyardgrass plant response rating (barnyardgrass [1]; [3]): 80 | Barnyardgrass plant response rating (barnyardgrass [1]; [4]): 90 | Barnyardgrass plant response rating (barnyardgrass [1]; [5]): 90 | Plant response rating, Barnyardgrass (barnyardgrass [1]; Preemergence, 500 g ai/ha): 100 | Cocklebur plant response rating (cocklebur; [6]): 10 | Plant response rating, Cocklebur (cocklebur; Preemergence): 0 | Plant response rating (0 to 100), Cocklebur (cocklebur; Preemergence): 65 | Cocklebur plant response rating (cocklebur; [7]): 50 | Kochia plant response rating (kochia): 100 | Plant response rating, Kochia (kochia): 100 | Velvetleaf plant response rating (velvetleaf): 100 | Plant response rating, Velvetleaf (velvetleaf): 80 | Foxtail, Green plant response rating (green foxtail; 62 g ai/ha, Preemergence): 100 | Foxtail, Green plant response rating (green foxtail; 125 g ai/ha, preemergence): 100 | Plant response rating, Foxtail, Green (green foxtail; Preemergence, 16 g ai/ha): 30 | Plant response rating, Foxtail, Green (green foxtail; Preemergence, 31 g ai/ha): 80 | Black Mustard plant response rating (mustard; 62 g ai/ha, Preemergence): 100 | Black Mustard plant response rating (mustard; 125 g ai/ha, preemergence): 100 | Plant response rating, Black Mustard (mustard; Preemergence, 16 g ai/ha): 80 | Plant response rating, Black Mustard (mustard; Preemergence, 31 g ai/ha): 100 | Dallisgrass plant response rating (dallisgrass; 62 g ai/ha, Preemergence): 100 | Dallisgrass plant response rating (dallisgrass; 125 g ai/ha, preemergence): 100 | Plant response rating, Dallisgrass (dallisgrass; Preemergence, 16 g ai/ha): 0 | Plant response rating, Dallisgrass (dallisgrass; Preemergence, 31 g ai/ha): 40 | Barnyardgrass plant response rating (barnyardgrass [2]; [6]): 100 | Barnyardgrass plant response rating (barnyardgrass [2]; [8]): 100 | Plant response rating, Barnyardgrass (barnyardgrass [2]; Preemergence, 16 g ai/ha, scale 0 to 100): 75 | Plant response rating, Barnyardgrass (barnyardgrass [2]; [9]): 100 | Signalgrass plant response rating (broadleaf signalgrass; 62 g ai/ha, Preemergence): 90 | Signalgrass plant response rating (broadleaf signalgrass; 125 g ai/ha, preemergence): 100 | Plant response rating, Signalgrass (broadleaf signalgrass; Preemergence, 31 g ai/ha): 75 | Dayflower plant response rating (Virginia dayflower; 62 g ai/ha, Preemergence): 100 | Dayflower plant response rating (Virginia dayflower; 125 g ai/ha, preemergence): 100 | Plant response rating, Dayflower (Virginia dayflower; Preemergence, 16 g ai/ha): 20 | Plant response rating, Dayflower (Virginia dayflower; Preemergence, 31 g ai/ha): 100 | Bluegrass plant response rating (annual bluegrass; 62 g ai/ha, Preemergence): 65 | Bluegrass plant response rating (annual bluegrass; 125 g ai/ha, preemergence): 100 | Plant response rating, Bluegrass (annual bluegrass; Preemergence, 16 g ai/ha): 0 | Plant response rating, Bluegrass (annual bluegrass; Preemergence, 31 g ai/ha): 40 | Itchgrass plant response rating (itchgrass; 62 g ai/ha, Preemergence): 95 | Itchgrass plant response rating (itchgrass; 125 g ai/ha, preemergence): 100 | Plant response rating, Itchgrass (itchgrass; Preemergence, 16 g ai/ha): 20 | Plant response rating, Itchgrass (itchgrass; Preemergence, 31 g ai/ha): 35 | Field Bindweed plant response rating (field bindweed; 62 g ai/ha, Preemergence): 80 | Field Bindweed plant response rating (field bindweed; 125 g ai/ha, preemergence): 90 | Plant response rating, Field Bindweed (field bindweed; Preemergence, 16 g ai/ha): 60 | Plant response rating, Field Bindweed (field bindweed; Preemergence, 31 g ai/ha): 70 | Mallow plant response rating (common mallow; 62 g ai/ha, Preemergence): 100 | Mallow plant response rating (common mallow; 125 g ai/ha, preemergence): 100 | Plant response rating, Mallow (common mallow; Preemergence, 16 g ai/ha): 0 | Plant response rating, Mallow (common mallow; Preemergence, 31 g ai/ha): 100

Cc1cc[n+]([O-])c(S(=O)(=O)Cc2c(C(F)(F)F)nn(C)c2OCC(F)(F)F)c1 [Compound 31]
Barnyardgrass plant response rating (barnyardgrass [1]; [3]): 70 | Barnyardgrass plant response rating (barnyardgrass [1]; [4]): 90 | Barnyardgrass plant response rating (barnyardgrass [1]; [5]): 100 | Plant response rating, Barnyardgrass (barnyardgrass [1]; Preemergence, 500 g ai/ha): 100 | Cocklebur plant response rating (cocklebur; [6]): 0 | Plant response rating, Cocklebur (cocklebur; Preemergence): 0 | Plant response rating (0 to 100), Cocklebur (cocklebur; Preemergence): 50 | Cocklebur plant response rating (cocklebur; [7]): 40 | Kochia plant response rating (kochia): 100 | Plant response rating, Kochia (kochia): 100 | Velvetleaf plant response rating (velvetleaf): 100 | Plant response rating, Velvetleaf (velvetleaf): 55 | Plant response rating, Foxtail, Green (green foxtail; 16 g ai/ha, preemergence): 60 | Foxtail, Green plant response rating (green foxtail; 62 g ai/ha, Preemergence): 100 | Foxtail, Green plant response rating (green foxtail; 125 g ai/ha, preemergence): 100 | Plant response rating, Foxtail, Green (green foxtail; Preemergence, 31 g ai/ha): 95 | Plant response rating, Black Mustard (mustard; 16 g ai/ha, preemergence): 40 | Black Mustard plant response rating (mustard; 62 g ai/ha, Preemergence): 100 | Black Mustard plant response rating (mustard; 125 g ai/ha, preemergence): 100 | Plant response rating, Black Mustard (mustard; Preemergence, 31 g ai/ha): 95 | Plant response rating, Dallisgrass (dallisgrass; 16 g ai/ha, preemergence): 35 | Dallisgrass plant response rating (dallisgrass; 62 g ai/ha, Preemergence): 95 | Dallisgrass plant response rating (dallisgrass; 125 g ai/ha, preemergence): 100 | Plant response rating, Dallisgrass (dallisgrass; Preemergence, 31 g ai/ha): 60 | Plant response rating, Barnyardgrass (barnyardgrass [2]; 16 g ai/ha, preemergence, scale 0 to 100 (0 no effect, 100 complete control)): 50 | Barnyardgrass plant response rating (barnyardgrass [2]; [6]): 100 | Barnyardgrass plant response rating (barnyardgrass [2]; [8]): 100 | Plant response rating, Barnyardgrass (barnyardgrass [2]; [9]): 95 | Plant response rating, Signalgrass (broadleaf signalgrass; 16 g ai/ha, preemergence): 35 | Signalgrass plant response rating (broadleaf signalgrass; 125 g ai/ha, preemergence): 98 | Plant response rating, Signalgrass (broadleaf signalgrass; Preemergence, 62 g ai/ha): 90 | Plant response rating, Signalgrass (broadleaf signalgrass; Preemergence, 31 g ai/ha): 60 | Plant response rating, Dayflower (Virginia dayflower; 16 g ai/ha, preemergence): 30 | Dayflower plant response rating (Virginia dayflower; 62 g ai/ha, Preemergence): 100 | Dayflower plant response rating (Virginia dayflower; 125 g ai/ha, preemergence): 100 | Plant response rating, Dayflower (Virginia dayflower; Preemergence, 31 g ai/ha): 65 | Plant response rating, Bluegrass (annual bluegrass; 16 g ai/ha, preemergence): 35 | Bluegrass plant response rating (annual bluegrass; 62 g ai/ha, Preemergence): 75 | Bluegrass plant response rating (annual bluegrass; 125 g ai/ha, preemergence): 90 | Plant response rating, Bluegrass (annual bluegrass; Preemergence, 31 g ai/ha): 65 | Plant response rating, Itchgrass (itchgrass; 16 g ai/ha, preemergence): 10 | Itchgrass plant response rating (itchgrass; 62 g ai/ha, Preemergence): 60 | Itchgrass plant response rating (itchgrass; 125 g ai/ha, preemergence): 80 | Plant response rating, Itchgrass (itchgrass; Preemergence, 31 g ai/ha): 25 | Plant response rating, Field Bindweed (field bindweed; 16 g ai/ha, preemergence): 0 | Field Bindweed plant response rating (field bindweed; 62 g ai/ha, Preemergence): 40 | Field Bindweed plant response rating (field bindweed; 125 g ai/ha, preemergence): 70 | Plant response rating, Field Bindweed (field bindweed; Preemergence, 31 g ai/ha): 0 | Plant response rating, Mallow (common mallow; 16 g ai/ha, preemergence): 0 | Mallow plant response rating (common mallow; 62 g ai/ha, Preemergence): 100 | Mallow plant response rating (common mallow; 125 g ai/ha, preemergence): 100 | Plant response rating, Mallow (common mallow; Preemergence, 31 g ai/ha): 100
